{"source": "patent US20170348231A1", "about": "“COMPOSITION AND METHOD FOR BUCCAL ADMINISTRATION OF GnRH AGONISTS” (NHTherapeutics INC, priority 2016, published 2017)", "key": {"[1]": {"system": "normally menstruating females", "conditions": "25 μg LH-RH each, double stimulation on three consecutive days, 12 females; cited from earlier work"}, "[2]": {"conditions": "intranasal; cited from earlier work"}, "[3]": {"system": "patient suffering from hypogonadotropic hypogonadism", "conditions": "intranasal, daily administration of a low dose; cited from earlier work"}, "male beagle dogs": {"system": "male beagle dogs", "experiment": "Oromucosal (buccal) spray in male beagle dogs, testosterone response", "type": "in vivo", "conditions": "0.5 mg oromucosal spray", "procedure": "The GnRH analogue leuprorelin acetate (leuprolide acetate) which is available as an injectable, was reformulated as described in Example 3. This spray was administered to male beagle dogs at a dose of 0.5 mg suspended in 140 μl and dispensed in a single spray to the inner cheek of male beagle dogs (studies 1 and 2). In addition, formulation 2 was sprayed to the mucosae at the back of the throat in a separate study to determine if this would alter the absorption characteristics (study 3). The two formulations were administered with a one week washout period. Drug was dispensed in a single spray with a volume of 140 μl (studies 1 and 2) or three consecutive sprays (study 3). The aim of the study was to determine if leuprolide could be delivered as an oralmucosal spray and to determine the minimum exposure required to increase levels of testosterone.\nThe blood levels for leuprolide were monitored 15 minutes before the start of the study and at time “0” (immediately after drug administration), then at 15, 30 minutes and at 1, 2, 3 and 5 hours (postdosing; studies 1 and 2). In addition, for study 3, two additional time points were included at 5 and 10 min post dosing. […]\nThe study was conducted by the University Health Network in Toronto and specifically at the Toronto Western Hospital. Serum samples were analysed at Inventiv Health in Quebec City."}}, "data": [{"molecule": "luteinizing hormone-releasing hormone (QHWSYGLRPG; Gonadoliberin-1; UniProt P01148 24-33, looked up) [LH-RH, Native or physiological GnRH, hormone secreted by the hypothalamus]", "values": [{"measurement": "serum LH levels", "setting": "[1]", "result": "Increases in serum LH levels were found after each of the two stimulations"}]}, {"molecule": "CCNC(=O)[C@@H]1CCCN1C(=O)[C@H](CCCNC(=N)N)NC(=O)[C@H](CC(C)C)NC(=O)[C@@H](COC(C)(C)C)NC(=O)[C@H](Cc1ccc(O)cc1)NC(=O)[C@H](CO)NC(=O)[C@H](Cc1c[nH]c2ccccc12)NC(=O)[C@H](Cc1cnc[nH]1)NC(=O)[C@@H]1CCC(=O)N1", "note": "[buserelin]", "values": [{"measurement": "bioavailability", "setting": "[2]", "result": 3, "unit": "%"}, {"measurement": "testosterone", "setting": "[3]", "result": "chronic and sustained increase in testosterone"}]}, {"molecule": "CCNC(=O)[C@@H]1CCCN1C(=O)[C@H](CCCNC(=N)N)NC(=O)[C@H](CC(C)C)NC(=O)[C@@H](CC(C)C)NC(=O)[C@H](Cc1ccc(O)cc1)NC(=O)[C@H](CO)NC(=O)[C@H](Cc1c[nH]c2ccccc12)NC(=O)[C@H](Cc1c[nH]cn1)NC(=O)[C@@H]1CCC(=O)N1", "note": "[Leuprolide acetate, leuprolide acetate]", "values": [{"measurement": "exposure levels at which the testosterone increase occurred", "setting": "male beagle dogs", "result": "at least 30 pg/ml"}, {"measurement": "peak testosterone increase compared to baseline", "setting": "male beagle dogs; FIGS. 1a, b", "result": "~200", "unit": "%"}]}]}
